Earlier results, collected in article PMC7838024 (Acta Pharmaceutica Sinica. B, 2020).

Settings: rats, doses from 0.5 to 1.5 mg/kg

CO[C@H]1C(=O)[C@]2(C)[C@@H](OC)C[C@H]3OC[C@@]3(OC(C)=O)[C@H]2[C@H](OC(=O)c2ccccc2)[C@]2(O)C[C@H](OC(=O)[C@H](O)[C@@H](NC(=O)OC(C)(C)C)c3ccccc3)C(C)=C1C2(C)C [CTX, cabazitaxel]
central nervous system toxicity: dose-dependent central nervous system toxicity
